Patent publication US6914045B2, “Glycopeptide antibiotics” (Wyeth Holdings Corporation, priority 2001, dated 2005)
≈ marks a conversion by molar mass, not a printed value. Where two headings read alike, the source gives them in different places.

Key:
Experiment in all cases: in vitro antibacterial evaluation, MIC by broth dilution
Assay type in all cases: cell-based
Enterococcus sp. = system: Enterococcus sp.
Protocol: (§1) Methods for in vitro Antibacterial Evaluation (Table 1)
(§2) The minimum inhibitory concentration (MIC), the lowest concentration of the antibiotic which inhibits growth of the test organism, is determined by the broth dilution method using Muller-Hinton II […] (Baltimore Biological Laboratories) following the recommendations of the National Committee for Clinical Laboratory Standards [Methods for dilution antimicrobial susceptibility tests for bacteria that grow aerobically, approved standard M7-A2, National Committee for Clinical Laboratory Standards, Villanova, Pa.].
(§3) An inoculum level of 5×10^5 CFU/mL, and a range of antibiotic concentrations (64-0.06 μg/mL) is used. […] The test organisms include a spectrum of Gram-positive bacteria comprised of Staphylococcus sp., Streptococcus sp. and Enterococcus sp. These organisms include recent clinical isolates that are resistant to methicillin, penicillin and/or vancomycin.

Staphylococcus sp. = system: Staphylococcus sp.
Protocol: as §1, §2, §3

Streptococcus sp. = system: Streptococcus sp.
Protocol: as §1, §2, §3

Escherichia coli = system: Escherichia coli
Procedure, shortened: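 Broth dilution MIC per NCCLS M7-A2 in Mueller-Hinton II medium, inoculum 5×10^5 CFU/mL, antibiotic range 64-0.06 μg/mL. MIC taken as lowest concentration inhibiting growth.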

## CC(c1ccccc1)C1NC(=O)CNC(=O)C(CO)NC(=O)C(C(O)C2CNC(=N)N2C2OC(CO)C(O)C(O)C2O)NC(=O)C(C(O)C2CNC(=N)N2)NC(=O)C(Cc2ccc3oc(C=C(c4ccccc4)c4ccccc4)nc3c2)NC1=O (stereo not drawn) [Example 39, Cyclo[3-[2-(2,2-diphenylethenyl)-1,3-benzoxazol-5-yl]alanyl-3-(2-iminoimidazolidin-4-yl)seryl-3-(3-hexopyranosyl-2-iminoimidazolidin-4-yl)serylserylglycyl-β-methylphenylalanyl]]
Enterococcus sp.; strain ATCC 29212, broth dilution, 18 hours at 35° C.
  MIC Enterococcus faecalis (ATCC 29212): 16 µg/mL (≈ 13.6 µM)
Enterococcus sp.; strain GC 2242, broth dilution, 18 hours at 35° C.
  MIC Enterococcus faecalis (GC 2242): 16 µg/mL (≈ 13.6 µM)
Enterococcus sp.; strain GC 2243, broth dilution, 18 hours at 35° C.
  MIC Enterococcus faecium (GC 2243): 8 µg/mL (≈ 6.81 µM)
Enterococcus sp.; strain GC 2691, broth dilution, 18 hours at 35° C.
  MIC Enterococcus faecalis (GC 2691): 16 µg/mL (≈ 13.6 µM)
Enterococcus sp.; strain GC 3059, broth dilution, 18 hours at 35° C.
  MIC Enterococcus faecalis (GC 3059): 16 µg/mL (≈ 13.6 µM)
Enterococcus sp.; strain GC 4552, broth dilution, 18 hours at 35° C.
  MIC Enterococcus faecalis (GC 4552): 16 µg/mL (≈ 13.6 µM)
Enterococcus sp.; strain GC 4553, broth dilution, 18 hours at 35° C.
  MIC Enterococcus faecalis (GC 4553): 8 µg/mL (≈ 6.81 µM)
Enterococcus sp.; strain GC 4554, broth dilution, 18 hours at 35° C.
  MIC Enterococcus faecalis (GC 4554): 32 µg/mL (≈ 27.3 µM)
Enterococcus sp.; strain GC 4556, broth dilution, 18 hours at 35° C.
  MIC Enterococcus faecium (GC 4556): 32 µg/mL (≈ 27.3 µM)
Enterococcus sp.; strain GC 4557, broth dilution, 18 hours at 35° C.
  MIC Enterococcus faecium (GC 4557): 8 µg/mL (≈ 6.81 µM)
Enterococcus sp.; strain GC 4558, broth dilution, 18 hours at 35° C.
  MIC Enterococcus avium (GC 4558): 8 µg/mL (≈ 6.81 µM)
Enterococcus sp.; strain GC 6189, broth dilution, 18 hours at 35° C.
  MIC Enterococcus faecalis (GC 6189): 16 µg/mL (≈ 13.6 µM)
Staphylococcus sp.; strain ATCC 29213, broth dilution, 18 hours at 35° C.
  MIC Staphylococcus aureus (ATCC 29213): 16 µg/mL (≈ 13.6 µM)
Staphylococcus sp.; strain GC 1131, broth dilution, 18 hours at 35° C.
  MIC Staphylococcus aureus (GC 1131): 16 µg/mL (≈ 13.6 µM)
Staphylococcus sp.; strain GC 3051, broth dilution, 18 hours at 35° C.
  MIC Staphylococcus aureus (GC 3051): 16 µg/mL (≈ 13.6 µM)
Staphylococcus sp.; strain GC 3053, broth dilution, 18 hours at 35° C.
  MIC Staphylococcus aureus (GC 3053): 8 µg/mL (≈ 6.81 µM)
Staphylococcus sp.; strain GC 4541, broth dilution, 18 hours at 35° C.
  MIC Staphylococcus aureus (GC 4541): 16 µg/mL (≈ 13.6 µM)
Staphylococcus sp.; strain GC 4542, broth dilution, 18 hours at 35° C.
  MIC Staphylococcus aureus (GC 4542): 16 µg/mL (≈ 13.6 µM)
Staphylococcus sp.; strain GC 4543, broth dilution, 18 hours at 35° C.
  MIC Staphylococcus aureus-SMITH (GC 4543): 16 µg/mL (≈ 13.6 µM)
Staphylococcus sp.; strain GC 4544, broth dilution, 18 hours at 35° C.
  MIC Staphylococcus aureus (GC 4544): 16 µg/mL (≈ 13.6 µM)
Staphylococcus sp.; strain GC 4545, broth dilution, 18 hours at 35° C.
  MIC Staphylococcus aureus (GC 4545): 16 µg/mL (≈ 13.6 µM)
Staphylococcus sp.; strain GC 4546, broth dilution, 18 hours at 35° C.
  MIC Staphylococcus haemolyticus (GC 4546): 8 µg/mL (≈ 6.81 µM)
Staphylococcus sp.; strain GC 4547, broth dilution, 18 hours at 35° C.
  MIC Coagulase Negative Staphylococcus (GC 4547): 8 µg/mL (≈ 6.81 µM)
Staphylococcus sp.; strain GC 4548, broth dilution, 18 hours at 35° C.
  MIC Coagulase Negative Staphylococcus (GC 4548): 8 µg/mL (≈ 6.81 µM)
Staphylococcus sp.; strain GC 4549, broth dilution, 18 hours at 35° C.
  MIC Coagulase Negative Staphylococcus (GC 4549): 4 µg/mL (≈ 3.41 µM)
Staphylococcus sp.; strain GC 4551, broth dilution, 18 hours at 35° C.
  MIC Coagulase Negative Staphylococcus (GC 4551): 8 µg/mL (≈ 6.81 µM)
Staphylococcus sp.; strain GC 6257, broth dilution, 18 hours at 35° C.
  MIC Coagulase Negative Staphylococcus (GC 6257): 4 µg/mL (≈ 3.41 µM)
Streptococcus sp.; strain ATCC 6301, broth dilution, 18 hours at 35° C.
  MIC Streptococcus pneumoniae (ATCC 6301): 8 µg/mL (≈ 6.81 µM)
Streptococcus sp.; strain GC 1894, broth dilution, 18 hours at 35° C.
  MIC Streptococcus pneumoniae (GC 1894): 8 µg/mL (≈ 6.81 µM)
Streptococcus sp.; strain GC 4563, broth dilution, 18 hours at 35° C.
  MIC Streptococcus pyogenes (GC 4563): 4 µg/mL (≈ 3.41 µM)
Streptococcus sp.; strain GC 4564, broth dilution, 18 hours at 35° C.
  MIC Streptococcus agalactiae (GC 4564): 16 µg/mL (≈ 13.6 µM)
Streptococcus sp.; strain GC 4565, broth dilution, 18 hours at 35° C.
  MIC Streptococcus pneumoniae (GC 4565): 16 µg/mL (≈ 13.6 µM)
Escherichia coli; strain ATCC 25922, broth dilution, 18 hours at 35° C.
  MIC Escherichia coli (ATCC 25922): 128 µg/mL (≈ 109 µM)
Escherichia coli; strain GC 4559, broth dilution, 18 hours at 35° C.
  MIC Escherichia coli (GC 4559): 128 µg/mL (≈ 109 µM)
Escherichia coli; strain GC 4560, broth dilution, 18 hours at 35° C.
  MIC Escherichia coli (GC 4560): 16 µg/mL (≈ 13.6 µM)

## CC(C)=Cc1nc2cc(CC3NC(=O)C(C(C)c4ccccc4)NC(=O)CNC(=O)C(CO)NC(=O)C(C(O)C4CNC(=N)N4C4OC(CO)C(O)C(O)C4O)NC(=O)C(C(O)C4CNC(=N)N4)NC3=O)ccc2o1 (stereo not drawn) [Example 40, Cyclo[3-[2-(2-methylprop-1-en-1-yl)-1,3-benzoxazol-5-yl]alanyl-3-(2-iminoimidazolidin-4-yl)seryl-3-(3-hexopyranosyl-2-iminoimidazolidin-4-yl)serylserylglycyl-β-methylphenyl-alanyl]]
Enterococcus sp.
  MIC Enterococcus avium (GC 4558): 64 µg/mL (≈ 60.9 µM)
  MIC Enterococcus faecalis (ATCC 29212): 128 µg/mL (≈ 122 µM)
  MIC Enterococcus faecalis (GC 2242): 128 µg/mL (≈ 122 µM)
  MIC Enterococcus faecalis (GC 2691): 128 µg/mL (≈ 122 µM)
  MIC Enterococcus faecalis (GC 3059): >128 µg/mL
  MIC Enterococcus faecalis (GC 4552): >128 µg/mL
  MIC Enterococcus faecalis (GC 4553): 64 µg/mL (≈ 60.9 µM)
  MIC Enterococcus faecalis (GC 4554): >128 µg/mL
  MIC Enterococcus faecalis (GC 6189): 128 µg/mL (≈ 122 µM)
  MIC Enterococcus faecium (GC 2243): 64 µg/mL (≈ 60.9 µM)
  MIC Enterococcus faecium (GC 4556): 128 µg/mL (≈ 122 µM)
  MIC Enterococcus faecium (GC 4557): 16 µg/mL (≈ 15.2 µM)
Staphylococcus sp.
  MIC Coagulase Negative Staphylococcus (GC 4547): 16 µg/mL (≈ 15.2 µM)
  MIC Coagulase Negative Staphylococcus (GC 4548): 32 µg/mL (≈ 30.5 µM)
  MIC Coagulase Negative Staphylococcus (GC 4549): 16 µg/mL (≈ 15.2 µM)
  MIC Coagulase Negative Staphylococcus (GC 4551): 32 µg/mL (≈ 30.5 µM)
  MIC Coagulase Negative Staphylococcus (GC 6257): 16 µg/mL (≈ 15.2 µM)
  MIC Staphylococcus aureus (ATCC 29213): 64 µg/mL (≈ 60.9 µM)
  MIC Staphylococcus aureus (GC 1131): 64 µg/mL (≈ 60.9 µM)
  MIC Staphylococcus aureus (GC 3051): 64 µg/mL (≈ 60.9 µM)
  MIC Staphylococcus aureus (GC 3053): 64 µg/mL (≈ 60.9 µM)
  MIC Staphylococcus aureus (GC 4541): 64 µg/mL (≈ 60.9 µM)
  MIC Staphylococcus aureus (GC 4542): 64 µg/mL (≈ 60.9 µM)
  MIC Staphylococcus aureus (GC 4544): 32 µg/mL (≈ 30.5 µM)
  MIC Staphylococcus aureus (GC 4545): 32 µg/mL (≈ 30.5 µM)
  MIC Staphylococcus aureus-SMITH (GC 4543): 64 µg/mL (≈ 60.9 µM)
  MIC Staphylococcus haemolyticus (GC 4546): 16 µg/mL (≈ 15.2 µM)
Streptococcus sp.
  MIC Streptococcus agalactiae (GC 4564): 64 µg/mL (≈ 60.9 µM)
  MIC Streptococcus pneumoniae (ATCC 6301): 64 µg/mL (≈ 60.9 µM)
  MIC Streptococcus pneumoniae (GC 1894): 32 µg/mL (≈ 30.5 µM)
  MIC Streptococcus pneumoniae (GC 4565): 128 µg/mL (≈ 122 µM)
  MIC Streptococcus pyogenes (GC 4563): 32 µg/mL (≈ 30.5 µM)
Escherichia coli
  MIC Escherichia coli (ATCC 25922): 32 µg/mL (≈ 30.5 µM)
  MIC Escherichia coli (GC 4559): 32 µg/mL (≈ 30.5 µM)
  MIC Escherichia coli (GC 4560): 16 µg/mL (≈ 15.2 µM)
